Holding throughout (assay type): cell-based, human
In assay [1] the test system is PARP. Kind of assay: Western blot analysis of PARP protein in DU145. The settings on record: DU145, 0, 20 and 40 mM, 72 h. The protocol: After 0, 20 and 40 mM of D-allose treatments for 72 h, DU145 cell line (1×10^6 cells in triplicate culture plates) was harvested into cell lysis buffer (Cell Signaling, Danvers, Mass., USA) supplemented with 1 mM PMSF. The cells were then sonicated, centrifuged and protein concentration was measured by Bradford assay with the Bio-Rad protein assay solution using bovine serum albumin (BSA) as standard. Proteins (30 μg) were separated on a 12.5% SDS-PAGE under reducing conditions and transferred onto a PVDF membrane (Santa Cruz Biotechnology, Santa Cruz, Calif., USA). Prestained protein marker, broad range: 6-175 kDa (New England Biolabs Inc., Ipswich, Mass., USA) run in parallel for detection of the molecular weights of the proteins. Membrane was blocked with 5% (w/v) skimmed milk in order to reduce non-specific binding and immunoblotting was performed using rabbit derived anti-Bcl-2, anti-Bax, anti-Caspase 3 and anti-PARP antibodies (1:500; Santa Cruz Biotechnology, Santa Cruz, Calif., USA). […] Membrane was probed with a goat derived horseradish peroxidase-conjugated anti-rabbit IgG (1:1000; Santa Cruz Biotechnology, Santa Cruz, Calif., USA), and proteins were detected by the enhanced chemiluminescence (ECL) detection system according to the vendor's protocol (Amersham Biosciences, Piscataway, N.J., USA) followed by X-ray exposure. […]

The test system of assay [2] is Bcl-2 mRNA. Kind of assay: RT-PCR of Bcl-2 mRNA in DU145. The settings on record: DU145, 72 h, 0, 20 and 40 mM. The procedure:
To identify the relative levels of expression of Bcl-2, Bax and Caspase 3 mRNAs after 0, 20 and 40 mM of D-allose treatments for 72 h, RT-PCR was performed. DU145 cell line (1×10^6 cells in triplicate culture plates) was harvested as mentioned above and total RNA was extracted using TRIzol reagent (Invitrogen, Carlsbad, Calif., USA) following a standard laboratory protocol. The RNA purity and concentrations were determined. Then 2 μg of total RNA was reversely transcribed to single-stranded cDNA using Oligo(dT)12-18 primer (Invitrogen, Carlsbad, Calif., USA) with M-MLV reverse transcriptase (Promega, Madison, Wis., USA). For PCR reaction, 4 μl of cDNA was reacted with 20 pmol each of the forward and reverse primers (Bioneer Corporation, Seoul, South Korea), and GoTaq® Green Master Mix […] containing PCR buffer, 25 mM magnesium chloride, 10 mM dNTP mix and Taq enzyme (Promega, Madison, Wis., USA), and amplified. […] The molecular sizes of the amplified products were determined by comparison with the molecular weight marker (100 by DNAladder; Promega, Madison, Wis., USA) run parallel with the PCR products. The densities of mRNA bands were analyzed by Molecular Analyst™, version 1.4.1 (Bio-Rad, Hercules, Calif., USA).

Assay [3] relates to DU145 cell line. In words: Mitochondrial Δψm by JC-1, flow cytometry. The settings on record: DU145, 20 and 40 mM, 24, 48 and 72 h. The protocol:
Mitochondrial Δψm was measured by JC-1 mitochondrial membrane potential detection kit (Biotium Inc, Hayward, Calif., USA) according to the manufacturer's protocol. Briefly, DU145 cell line (1×10^6 cells in triplicate culture plates) was harvested after treatments with 0, 20 and 40 mM of D-allose for up to 72 h as mentioned above, stained with […] JC-1 reagent at 37° C. for 15 min and resuspended twice in 1× assay buffer. Changes in mitochondrial Δψm were measured at the single cell level by FACSCalibur flow cytometer (Becton Dickinson, San Jose, Calif., USA) under the following conditions: FL1, 511 volts; FL2, 389 volts; FL1-10.5% FL2; FL2-25.9% FL1; 488 nm argon excitation laser and 585 nm band pass filter. In total 10,000 cells were acquired for analysis by CellQuest software, version 3.0 (Becton Dickinson, San Jose, Calif., USA), and the quantification of cells with low mitochondrial Δψm as the percentage of total cell population was performed. Further, the DU145 cell line was seeded onto chamber slides with 1×10^5 cells/chamber in 500 μl of complete culture medium containing 0, 20 and 40 mM of D-allose for 72 h, permeabilized with 0.1% Triton, stained with 1×JC-1 reagent in dark, mounted with Prolong Antifade reagent (Molecular Probes, Eugene, Oreg., USA), and images (JC-1, green) were acquired by use of a fluorescence microscope (Axioplan 2, Carl Zeiss, Germany).

SMILES strings stand for the structures.

`O=C[C@H](O)[C@H](O)[C@H](O)[C@H](O)CO` [D-allose]: in assay [1], the “cleaved PARP product” value is “concomitant increase” and the “full length PARP protein expression” value is given as “remarkable dose-dependent decrease”. In addition, the “Bcl-2 mRNA expression” value in assay [2] is on record as “significantly reduced”. Moreover, the “cells with low mitochondrial Δψm” value in assay [3] was “appearance of a remarkable subpopulation of cells with low mitochondrial Δψm in a dose- and time-dependent manner”.

The record behind these values is US20110071094A1, “(D)-ALLOSE INDUCING PROGRAMMED CELL DEATH IN HORMONE REFRACTORY PROSTATE CANCER LINES” (INDUSTRY-ACADEMIC COOPERATION FOUDATION, GYEONGSANG …, priority 2008, published 2011).
